Consider one compound from patent EP2343074A1, “Use of purine analogues for treating airway diseases” (Merck Serono S.A., priority 2009, dated 2011).

Data set [1] has as its system patient having asthma with recurring asthma attacks. Put plainly: Treatment of an asthma patient with oral cladribine tablets. To be noted: dosage regimen disclosed in WO2006067141. In kind it is in vivo. The protocol: A patient having asthma with recurring asthma attacks is treated with oral cladribine tablets and following the dosage regimen disclosed in WO2006067141. As a result, the symptoms of asthma and airway hyperresponsiveness are reduced in this patient.

The subject of data set [2] is BALB/c mice. In kind it is in vivo. The following applies: female BALB/c mice. The protocol: Female BALB/c mice, aged 10-12 wk, are housed in environmentally controlled specific pathogen-free conditions for 1 wk before study and for the duration of the experiments, which are performed according to J Appl Physiol, VOL 97, 2004, 2258-2265. Accordingly, mice are sensitized with intraperitoneal ovalbumin conjugated to aluminum potassium sulfate, as described in Am J Respir Cell Mol Biol 21: 473-479, 1999. Sensitized mice are subjected to either brief or chronic periods of allergen exposure, as described in Am J Respir Cell Mol Biol 27: 526-535, 2002. Control mice are subjected to the same sensitization protocol but are receiving saline challenges.
Allergen-challenged and control mice are studied at 24 h after the final exposure (at day 21) in the brief allergen-challenge protocol and at week 4 after the final exposure in the chronic allergen-challenge protocol. […]
At day 21 or week 4, respectively, the underlying contributors to airway responsiveness, namely airway reactivity [slope of increase in total respiratory system resistance (Rrs) for a given increase in MCh dose], airway sensitivity (lowest dose of MCh to produce bronchoconstriction), and the maximum inducible bronchoconstriction (maximum Rrs) are measured following brief or chronic allergen challenge. These components of airway responsiveness are measured based on the response of Rrs to saline and increasing (10, 33, 100, and 330 µg/kg) intravenous doses of MCh. Rrs is measured by using the flow interrupter technique, modified for use in mice, and described in Am J Respir Cell Mol Biol 21: 473-479, 1999, Am J Respir Cell Mol Biol 27: 526-535, 2002 and J Appl Physiol 89: 413-421, 2000. Total respiratory system resistance (Rrs) is measured in response to increasing doses of intravenous methacholine (MCh). Using the resulting Rrs-MCh dose-response curve, indexes of airway reactivity (Slope Rrs), airway sensitivity, or the lowest dose to produce bronchoconstriction (Break Rrs) and maximal degree of bronchoconstriction (Max Rrs) are measured. […]

In the case of `Nc1nc(Cl)nc2c1ncn2[C@H]1C[C@H](O)[C@@H](CO)O1` [cladribine, 2-chloro-9-(2'-deoxy-beta-D-ribofuranosyl)-adenine], the “symptoms of asthma and airway hyperresponsiveness” value in data set [1] is “reduced”. The “signs of asthma, increased airway reactivity and maximal bronchoconstriction” value in data set [2] (brief or chronic allergen exposure, cladribine intraperitoneally 15 mg/kg per injection, as compared to the control) is listed as “beneficial to reduce”. In addition, the “asthma related symptoms such as increased bronchoconstriction and allergen-induced development of AHR” value in data set [2] (brief or chronic allergen exposure, cladribine intraperitoneally on days 1, 5 and 9, 15 mg/kg body weight per injection, versus phosphate buffer without cladribine) is reported as “reduces or abrogates”. In addition, in data set [2] (cladribine intraperitoneally on days 1, 5 and 9, 15 mg/kg body weight per injection), the host toxicity entry is reported as “little or no host toxicity”.
